Measurements as given in patent publication US6710165B2, “IgE-dependent histamine-releasing factor-binding peptides” (priority 2000, dated 2004).

Legend:
RBL-2H3 cells = assay: Inhibition of histamine release by HRF (RIA); assay type: cell-based; conditions: for effect on histamine release by HRF: peptide 20 μg/ml, HRF 20 μg/ml
Procedure: The full-length rat HRF sequence (Chitpatima, et al., 1988) amplified by PCR was cloned in pRSET-A vector and overexpressed in E. coli. The expressed recombinant protein was purified by His-bound Ni column (Novagen) and used for the stimulation of RBL-2H3 cells. RBL-2H3 cells were grown in 24-well plate at 1×10^6 cells, sensitized with rat IgE antibodies (0.2 μg/ml, Serotec) for 45˜60 minutes and then, treated with 20 μg/ml of the recombinant HRF protein (positive control). The cells as prepared above were dose-dependently treated with heptamer peptides p1 and p2. Also, they were treated with the recombinant HRF protein and peptides p1, p2, p4 and m1 to m7 at the same concentration as that of HRF, i.e. 20 μg/ml, respectively,
The obtained sample was prepared to acylated histamine using RIA-analysis kit (Immunotech, France) and then, competitively bound to ^125I-acylated histamine and monoclonal antibodies. This sample was reanalyzed in γ-counter.

malaria protein HRF = malaria protein HRF (Plasmodium falciparum, UniProt Q8I3Z5); conditions: cited from earlier work
malaria protein HRF, sequence (Q8I3Z5 whole entry): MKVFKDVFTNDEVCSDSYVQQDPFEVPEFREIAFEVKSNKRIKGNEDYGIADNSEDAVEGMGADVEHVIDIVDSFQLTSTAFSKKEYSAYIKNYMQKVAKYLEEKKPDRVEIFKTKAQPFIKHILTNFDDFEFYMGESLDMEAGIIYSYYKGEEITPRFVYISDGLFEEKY

HRF = molecular target: T1, HRF (Rattus norvegicus, UniProt P63029); assay: Competition binding assay of synthetic peptides against phage clones; conditions: for binding site on HRF, competitive binding analysis on ph2: competition with ph2; for competition of synthetic peptide with phage clones for HRF: peptide 0.001-1000 nM, phage 1/25-fold diluted
T1 construct: His tag (pRSET-A); made in house; host or cells: E. coli
T1 sequence (P63029 1-172): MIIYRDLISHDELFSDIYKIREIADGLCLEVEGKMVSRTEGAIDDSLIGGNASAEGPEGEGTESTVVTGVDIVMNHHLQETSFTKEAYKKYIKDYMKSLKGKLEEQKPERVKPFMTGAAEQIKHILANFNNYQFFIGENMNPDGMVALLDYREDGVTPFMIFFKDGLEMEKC
Procedure: Also, as a negative control, random peptide (ran, amino acid sequence: LMEGCRA) was synthesized. To the wells coated with HRF was added each 30 μl of the peptide solution serially diluted in 6% BSA/PBS from 1000 nM (1000, 100, 10, 1, 0.1, 0.01, 0.001 nM) and the solution was allowed to stand at room temperature for 30 minutes. The 1/25-fold diluted phage solution was added thereto and the whole solution was further allowed to stand for 2 hours. The solution was washed five times with PBST and then, each 100 μl of HRP-conjugated anti-M13 antibodies were added thereto and then, the resulting mixture was allowed to stand for 1 hour. The mixture was washed 6 times with PBST and once with PBS, and thereto was added each 100 μl of peroxydase substrate solution to examine the competition.
b) In order to test whether or not p1, p2 and p4 bind to the identical site on HRF, the wells were coated with HRF according to the substantially same procedure as in the above a).

PC12 cells = assay: Inhibition of HRF-stimulated dopamine release by HRF-binding peptide; assay type: cell-based; conditions: 60 μg/ml of p2, 15 μg/ml of HRF
Procedure: In order to confirm whether the peptides blocking histamine release by HRF also block neurotransmitters release in nerve cells, the peptide of SEQ ID No. 14 (p2) was tested for its effects on dopamine release stimulated by HRF according to the substantially same procedure as in Example 16.

| Compound | effect on histamine release by HRF (RBL-2H3 cells) | further results |
| --- | --- | --- |
| WYVAPSM (OTHER INFORMATION: IgE-dependent histamine-releasi ng factor binding peptide) [m4, p2 variant, alanine substitution] | inhibited histamine release by HRF |  |
| C[C@@H]1CC[C@H]2[C@@H](C)C(=O)O[C@@H]3O[C@@]4(C)CC[C@@H]1[C@]32OO4 [Artemisinin] |  | binding to malaria protein HRF (malaria protein HRF): binds to malaria protein HRF |
| WYAYPSM (OTHER INFORMATION: IgE-dependent histamine-releasi ng factor binding peptide) [m3, p2 variant, alanine substitution] | inhibited histamine release by HRF |  |
| AYVYPSM (OTHER INFORMATION: IgE-dependent histamine-releasi ng factor binding peptide) [m1, p2 variant, alanine substitution] | inhibited histamine release by HRF |  |
| WAVYPSM (OTHER INFORMATION: IgE-dependent histamine-releasi ng factor binding peptide) [m2, p2 variant, alanine substitution] | inhibited histamine release by HRF |  |
| WYVYPAM (OTHER INFORMATION: IgE-dependent histamine rele asing factor binding peptide) [m6, p2 variant, alanine substitution] | conversely stimulated histamine release |  |
| WEFPGWM (OTHER INFORMATION: IgE-dependent histamine-releasi ng factor binding peptide) [p4] | inhibited histamine release by HRF | binding site on HRF, competitive binding analysis on ph2 (HRF): bound to the identical site on HRF; competition of synthetic peptide with phage clones for HRF (HRF): bind to HRF competitively with phage clones ph2 and ph4 |
| WYVYPSA [m7, p2 variant, alanine substitution] | inhibited histamine release by HRF |  |
| WYVYKSM (OTHER INFORMATION: IgE-dependent histamine-releasi ng factor binding peptide) [m5, p2 variant, substituted with Lysine (K)] | inhibited histamine release by HRF |  |
| LVTYPLP (OTHER INFORMATION: IgE-dependent histamine-releasi ng factor binding peptide) [p1] | inhibited histamine release by HRF | binding site on HRF, competitive binding analysis on ph2 (HRF): bound to the identical site on HRF |
| WYVYPSM (OTHER INFORMATION: IgE-dependent histamine-releasi ng factor binding peptide) [p2] | inhibited histamine release by HRF | binding site on HRF, competitive binding analysis on ph2 (HRF): bound to the identical site on HRF; competition of synthetic peptide with phage clones for HRF (HRF): bind to HRF competitively with phage clones ph2 and ph4; peptide concentration that inhibited histamine release (RBL-2H3 cells; dose-response, 20 μg/ml HRF): ≥ 0.01 µg/mL; inhibition of HRF-increased dopamine release (PC12 cells): about 60% |
